In patent US9982011B2, “Legumain activated doxorubicin derivative as well as preparation method and application thereof” (priority 2012, dated 2018):
Entries after “also recorded” stand apart in the source; their conditions may differ.

Assays:
Cathepsin B [1] = target: T1, Cathepsin B (Homo sapiens, UniProt P07858); assay: Cathepsin enzymatic activity with Z-Phe-Arg-NMec substrate; type: biochemical; details: pH 6.0, FIG. 2
Text: Furthermore, Z-Phe-Arg-NMec was used as substrate to analyze the activity of cathepsin under pH 6.0. […] Cathepsin B was highly expressed in the lysosome of the tumor cell. It could degrade type I collagen, activate interstitial procollagenase and type IV procollagenase, and degrade type I, II, III and IV collagen fibers in the stroma, thus anticipating infiltration and metastasis of tumor.

[2] = Distribution of drug in tumor and heart tissues after intravenous injection; type: in vivo; details: for Distribution in tumor tissue sections (fluorescence microscope): 12 hours after intravenous injection of 10 μmol/kg, compared with Succinyl-AANL-DOX, FIG. 3; for Accumulation in the heart tissue / Accumulation in the tumor tissue: FIG. 4; for Accumulation in the tumor tissue: compared with doxorubicin and Succinyl-AANL-DOX
Text: After intravenous injection of EMC-AANL-DOX (SEQ ID NO: 2), EMC-AANL-DOX (SEQ ID NO: 2) could accumulate at the tumor site due to the targeting property of the EMC group, as compared with Succinyl-AANL-DOX (SEQ ID NO: 2) and more EMC-AANL-DOX (SEQ ID NO: 2) were distributed in the tumor tissue. Since the drug itself could produce fluorescence, we detected distribution of Succinyl-AANL-DOX (SEQ ID NO: 2) and EMC-AANL-DOX (SEQ ID NO: 2) in the tumor tissue sections by fluorescence microscope 12 hours after intravenous injection of 10 μmol/kg Succinyl-AANL-DOX (SEQ ID NO: 2) and EMC-AANL-DOX (SEQ ID NO: 2). The nucleus was stained by 4′,6-diamidino-2-phenylindole (DAPI).

MDA-MB231 cells = assay: Efficacy in MDA-MB231 tumor model in nude mice; type: in vivo; details: i.p. twice weekly for three weeks, S1, S2 30 mg/kg, doxorubicin hydrochloride 4 mg/kg
Text: Test purpose: to investigate the anti-tumor efficacy of S1 and S2 via mouse tumor treatment model.
Test drug: S1 and S2 injections, and doxorubicin hydrochloride injection, diluted to corresponding concentrations by physiological saline when testing.
1. Animal: nude mice of 6-8 weeks old, all female.
1) MDA-MB231 cells were purchased from American type culture collection (ATCC) and identified according the specification provided by ATCC.
2) Production of tumor. […] Mice were randomly grouped after the diameter of the tumor reached about 0.3 cm to 0.4 cm. Then treatment began.
According to the clinical application of S1 and S2, drugs were intraperitoneally injected. A dose of 30 mg/kg (<1/2 MTD) was used for the S1 treatment group, 30 mg/kg (<1/2 MTD) for the S2 treatment group, and 4 mg/kg (>1/2 MTD) for doxorubicin hydrochloride. The control group was administered with physiological saline. The drugs were administered twice weekly for three weeks.

Cathepsin B [3] = target: T1, Cathepsin B; assay: In vitro binding to cathepsin absorbed on a 96-well plate (fluorescence of bound drug); details: cathepsin absorbed on 96-well plate, blocked with BSA, FIG. 1
Text: The R6 group allows the drug to be able to target cathepsin (Cathepsin B) in the tumor microenvironment and inhibit the activity of cathepsin necessary for tumor growth, development and metastasis. […] The R6 group also allows the drug to have an additional function of targeting tumor, thus the drug has two targeted effects.
The test method was described as follows. Cathepsin was absorbed on a 96-well plate and blocked with BSA. Succinyl-AANL-DOX (SEQ ID NO: 2), S1 and a mixture of S1 and E-64 (an inhibitor for specific binding of cathepsin) were added to allow them to bind to the cathepsin on the 96-well plate. The unbound drugs were removed and the fluorescence of the bound drug was detected.

4T1 cells = assay: Tumor growth inhibition in 4T1 breast cancer model in BALB/C mice; type: in vivo
Text: Test purpose: to investigate the anti-tumor efficacy of Succinyl-AANL-DOX (SEQ ID NO: 2) and EMC-AANL-DOX (SEQ ID NO: 2) in a 4T1 breast cancer treatment model from BALB/C mice.
Treatment drug: Succinyl-AANL-DOX (SEQ ID NO: 2) and EMC-AANL-DOX (SEQ ID NO: 2) injections, and doxorubicin hydrochloride injection, diluted to corresponding concentrations by physiological saline when testing.
1) 4T1 cells were purchased from American type culture collection (ATCC) and identified according the specification provided by ATCC.
2) Production of tumor. 10^6 4T1 cells were subcutaneously injected to the back of the BALB/C mice. Mice were randomly grouped after the diameter of the tumor reached about 0.3 cm to 0.4 cm. Then treatment began.
Succinyl-AANL-DOX (SEQ ID NO: 2), Legubicin and EMC-AANL-DOX (SEQ ID NO: 2) were intraperitoneally injected. The dose of Succinyl-AANL-DOX (SEQ ID NO: 2), Legubicin and EMC-AANL-DOX (SEQ ID NO: 2) were all 28.16 μmol/kg. The dose of doxorubicin hydrochloride was 3.448 μmol/kg. The control group was administered with physiological saline. The drugs were administered twice weekly for three weeks.
4) Results and discussion.

BALB/C mice = assay: Maximum tolerated dose (MTD) / acute toxicity of a single injection in mice; details: single injection; for Mortality rate (%) / Number of dead animal: 6 female BALB/C mice
Text: Test purpose: to investigate the acute toxicity of the subject new drug formulation via MTD assay by intravenous administration to mice.
Test drug: S1 and S2 injections, diluted to the corresponding concentrations with physiological saline when tested.
Animal: the first class BALB/C mice, weighing 19-21 g and all mice being female.
Method and results: 36 female BALB/C mice weighing 19-21 g were randomly divided into 6 groups according to their body weights, with 6 mice in each group. […] Control tests were performed by injecting 0.2 ml physiological saline or doxorubicin hydrochloride. […] Blood samples were taken on the 3, 5 and 14 days for counting the whole blood cells. Animals were anatomized on day 14 to take the heart, liver, kidney, lung, spleen, and pancreas for HE staining.
The MTD for intravenous administration of a test drug is an important reference index for drug toxicity.

serum albumin = serum albumin (Mus musculus, UniProt P07724); details: blood taken 10 minutes after intravenous tail injection
Experimental: Bloods were taken after 10 minutes and centrifuged to obtain serum. The proteins in the serum were precipitated by 70% ethanol.

[4] = Metabolic half-life in mice blood

serum albumin, sequence (P07724 25-608): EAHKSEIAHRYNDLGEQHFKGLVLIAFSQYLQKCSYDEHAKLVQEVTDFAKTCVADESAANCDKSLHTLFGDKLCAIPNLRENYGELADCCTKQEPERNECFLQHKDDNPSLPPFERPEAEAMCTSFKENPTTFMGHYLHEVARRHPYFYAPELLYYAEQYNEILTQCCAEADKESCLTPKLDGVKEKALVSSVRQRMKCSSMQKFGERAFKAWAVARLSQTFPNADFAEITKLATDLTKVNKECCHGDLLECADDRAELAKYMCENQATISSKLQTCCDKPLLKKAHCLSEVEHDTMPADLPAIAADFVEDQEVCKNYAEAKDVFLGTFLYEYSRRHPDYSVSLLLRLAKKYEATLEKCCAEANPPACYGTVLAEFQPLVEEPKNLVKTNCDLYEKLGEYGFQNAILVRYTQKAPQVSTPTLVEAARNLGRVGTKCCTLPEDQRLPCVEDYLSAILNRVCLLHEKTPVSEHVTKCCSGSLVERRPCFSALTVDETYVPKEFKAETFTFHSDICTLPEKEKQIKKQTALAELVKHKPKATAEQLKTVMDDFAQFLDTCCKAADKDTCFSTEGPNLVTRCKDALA

COc1cccc2c1C(=O)c1c(O)c3c(c(O)c1C2=O)CC(O)(C(=O)CO)CC3OC1CC(NC(=O)C(CC(C)C)NC(=O)C(CC(N)=O)NC(=O)C(C)NC(=O)C(C)NC(=O)CCCCCN2C(=O)C=CC2=O)C(O)C(C)O1 (centres unmarked) [Example S1, EMC-AANL-Doxorubicin]
Inhibition of enzymatic activity of cathepsin (Cathepsin B [1]): could effectively inhibit the enzymatic activity of cathepsin
Distribution in tumor tissue sections (fluorescence microscope) [2]: have the effect to accumulate the drug at tumor cell
Distribution in tumor tissue sections (fluorescence microscope) ([2]; listed as EMC-AANL-DOX): significantly more
Accumulation in the heart tissue [2]: reduced accumulation in the heart
Accumulation in the heart tissue ([2]; listed as EMC-AANL-DOX): no accumulation in the heart tissue
Accumulation in the tumor tissue [2]: accumulation of S1 in the tumor site
Accumulation in the tumor tissue ([2]; listed as EMC-AANL-DOX): accumulated in a higher concentration in the tumor tissue
Inhibitory rate of tumor, 20 days (MDA-MB231 cells; 20 days): 25.8%
Size of tumor (mm^3), 20 days (MDA-MB231 cells; 20 days, nude mice): 287.42 ± 30.52 mm^3
Inhibitory rate of tumor, 38 days (MDA-MB231 cells; 38 days): 68.5%
Size of tumor (mm^3), 38 days (MDA-MB231 cells; 38 days, nude mice): 678.49 ± 37.7 mm^3
Binding to cathepsin (Cathepsin B [3]): bound to the cathepsin; also recorded: can bind cathepsin
Binding to cathepsin (Cathepsin B [3]; listed as EMC-AANL-DOX): can efficiently bind to Cathepsin B
Inhibitory effect on tumor growth (in words) (4T1 cells; 28.16 μmol/kg i.p. twice weekly for three weeks, compared with Succinyl-AANL-DOX, Dox and BOC-AANL-DOX, FIG. 5): could significantly improve the inhibitory effect on tumor growth; also recorded: exhibits a superior inhibitory effect on tumor growth
Inhibitory effect on tumor growth relative to Succinyl-AANL-DOX (4T1 cells; 4T1 breast cancer model, etc.): 4-5 folds
Mortality rate (%) (BALB/C mice; 50 mg/kg): 0%
Number of dead animal (BALB/C mice; 50 mg/kg, observed 17 days): 0
Mortality rate (%) (BALB/C mice; 100 mg/kg): 0%
Number of dead animal (BALB/C mice; 100 mg/kg): 0
Mortality rate (%) (BALB/C mice; 150 mg/kg): 0%
Number of dead animal (BALB/C mice; 150 mg/kg): 0
Abnormal behaviors and death observed (BALB/C mice; 150 mg/kg, mice): no pilo-erection, hair tousle and lackluster, lethargy, stoop, irritable reaction and death were observed
Mortality rate (%) (BALB/C mice; 200 mg/kg): 33.3%
Number of dead animal (BALB/C mice; 200 mg/kg): 2
Mortality rate (%) (BALB/C mice; 300 mg/kg): 100%
Number of dead animal (BALB/C mice; 300 mg/kg): 5
MTD (BALB/C mice; mice): > 100 µmol/kg
Binding to serum albumin / plasma protein in blood (serum albumin): most of S1 could bind to serum albumin and thus precipitated; also recorded: most of S1 bound to the plasma protein
Metabolic half-life in the mice blood [4]: above 74 hours
